How the values were obtained:
THP-1 macrophages = experiment: Transwell migration assay of THP-1 macrophages with U87 conditioned media; assay type: cell-based; settings: conditioned media from U87 cells pretreated with SR9009 5 μM
Protocol: Migration assay. To study the relationship between macrophages and microglia, HMC3 microglia or THP-1 macrophages were seeded into the 24-well plates (receiver wells) using serum-containing culture medium for 24 hours to reach 40-60% confluence and then stimulated with or without U87 cell CM for additional 24 hours. After that, cells were washed with PBS twice and cultured in serum-free culture medium. For upper chambers, THP-1 macrophages (2×10^5) and HMC3 microglia (5×10^4) were suspended in serum-free culture medium and seeded into […] (Corning, #3421) and […] (Corning, #3422) 24-well Transwell inserts, respectively. To study the role of GBM cells on microglia migration, HMC3 microglia (5×10^4) were suspended in serum-free culture medium and seeded into 8.0 μm inserts. SIM-A9 microglia (1×10^5) and THP-1 macrophages (1×10^5) were suspended in serum-free culture medium and seeded into 5.0 μm inserts. The CM from LOX-depleted or inhibited U87 cells, LOX-overexpressed GL261 cells, or SR9009-treated U87 cells were added to the receiver wells, respectively. After 10 hours, migrated cells were fixed with 4% PFA (ThermoFisher, #J61899.AK) for 30 minutes and stained with crystal violet (Sigma-Aldrich, #C-3886) for another 30 minutes. The membrane inserts were washed with water and imaged under an EVOS microscope. The number of transferred cells was counted using ImageJ.

LOX = experiment: Immunoblots for LOX in CT2A cells and 005 GSCs; assay type: cell-based, mouse; settings: immunoblot, SR9009 5 μM
Protocol: Cell Culture. The GBM cell lines U87, U251, SF763, LN229, and CT2A, as well as 293T cells were cultured in Dulbecco's Modified Eagle's Medium (DMEM; Gibco, #11995-065). The mouse glioma cell line GL261 cells and SIM-A9 microglia were cultured in Dulbecco's Modified Eagle Medium-Ham's F12 medium (Gibco, #10565-018). HMC3 microglia were cultured in Eagle's Minimum Essential Medium (ATCC, #30-2003). THP-1 macrophages were cultured in RPMI 1640 medium (Gibco, #11875093). All cell lines were cultured in the indicated medium containing 10% fetal bovine serum (FBS; Fisher Scientific, #16140071) and 1:100 antibiotic-antimycotic (Gibco, #15140-122), and were purchased from the American Type Culture Collection (ATCC). Human GSCs (GSC23 and GSC7-10) and mouse GBM tumor-derived 005 GSCs and QPP7 GSCs were cultured in neural stem cell (NSC) proliferation media (Millipore, #SCM005) containing 20 ng/mL epidermal growth factor (EGF; PeproTech, #AF-100-15) and basic fibroblast growth factor (bFGF; PeproTech, #100-18B). Human GSCs were gifted by Dr. Frederick F. Lang from the Brain Tumor Center (The University of Texas MD Anderson Cancer Center). 005 GSCs and QPP7 GSCs were provided by Dr. Samuel D. Rabkin (Massachusetts General Hospital) and Dr. Jian Hu (The University of Texas MD Anderson Cancer Center), respectively. PTEN CRISPR KO in SF763 and LN229 cells were generated. […]

CCOC(=O)N1CCC(CN(Cc2ccc(Cl)cc2)Cc2ccc([N+](=O)[O-])s2)C1 (centres unmarked) [SR9009]
migration ability of THP-1 macrophages (THP-1 macrophages): did not change
LOX expression (LOX): did not affect
